Results: patent publication US20150105252A1, “SUBSTITUTED PYRAZOLES AS HERBICIDES” (E I DU PONT DE NEMOURS AND COMPANY, priority 2013, published 2015)

Key:
[1] = tested on: barnyardgrass; experiment: Test A postemergence; assay type: in vivo, Echinochloa crus-galli; details: Postemergence
Method in brief: (§1)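 Both timings tested concurrently in loam/sand soil: preemergence by directed soil spray, postemergence on plants of 2–10 cm at the one- to two-leaf stage. Greenhouse holding period was approximately 10 days before visual injury assessment (0–100, 0 = no effect).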

[2] = tested on: velvetleaf; experiment: Test C preemergence; assay type: in vivo, Abutilon theophrasti; details: for Plant response rating (scale of 0 to 100), Velvetleaf: Preemergence, 250 g ai/ha; for Velvetleaf plant response rating / Plant response rating, Velvetleaf: preemergence; for Plant response rating, Velvetleaf: 62 g ai/ha, scale 0 to 100, 0 = no effect, 100 = complete control
Method in brief: (§2)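 Visual control ratings on a 0–100 scale (100 = complete control) made against untreated controls after 13 to 15 days in greenhouse. Compounds applied in surfactant-containing solvent mixture, either preemergence to loam/sand-sown seeds or postemergence to 1- to 4-leaf plants (2–18 cm) in peat medium.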

[3] = tested on: velvetleaf; experiment: Test C postemergence; assay type: in vivo, Abutilon theophrasti; details: postemergence; for Velvetleaf plant response rating: 62 g ai/ha, scale 0 to 100
Method in brief: as §2

[4] = tested on: soybean; experiment: Test C preemergence; assay type: in vivo, Glycine max; details: for Plant response rating (scale of 0 to 100), Soybean: Preemergence, 250 g ai/ha; for Soybean plant response rating / Plant response rating, Soybean: preemergence; for Plant response rating, Soybean: 62 g ai/ha, scale 0 to 100, 0 = no effect, 100 = complete control
Method in brief: as §2

[5] = tested on: nutsedge, yellow; experiment: Test C preemergence; assay type: in vivo, Cyperus esculentus; details: for Plant response rating (scale of 0 to 100), Nutsedge, Yellow: Preemergence, 250 g ai/ha; for Nutsedge, Yellow plant response rating / Plant response rating, Nutsedge, Yellow: preemergence; for Plant response rating, Nutsedge, Yellow: 62 g ai/ha, scale 0 to 100, 0 = no effect, 100 = complete control
Method in brief: as §2

[6] = tested on: pigweed; experiment: Test A postemergence; assay type: in vivo, Amaranthus retroflexus
Method in brief: as §1

[7] = tested on: crabgrass, large; experiment: Test A preemergence; assay type: in vivo, Digitaria sanguinalis; details: 0 to 100 scale
Method in brief: as §1

[8] = tested on: wheat; experiment: Test C postemergence; assay type: in vivo, Triticum aestivum; details: postemergence; for Wheat plant response rating: 62 g ai/ha, scale 0 to 100
Method in brief: as §2

[9] = tested on: velvetleaf; experiment: Test A preemergence; assay type: in vivo, Abutilon theophrasti; details: 0 to 100 scale
Method in brief: as §1

[10] = tested on: soybean; experiment: Test C postemergence; assay type: in vivo, Glycine max; details: postemergence; for Soybean plant response rating: 62 g ai/ha, scale 0 to 100
Excerpt: (§3) Seeds of plant species selected from blackgrass (Alopecurus myosuroides), ryegrass, Italian (Italian ryegrass, Lolium multiflorum), wheat (winter wheat, Triticum aestivum), galium (catchweed bedstraw, Galium aparine), corn (Zea mays), crabgrass, large (large crabgrass, Digitaria sanguinalis), foxtail, giant (giant foxtail, Setaria faberii), johnsongrass (Sorghum halepense), lambsquarters (Chenopodium album), morningglory (Ipomoea coccinea), nutsedge, yellow (yellow nutsedge, Cyperus esculentus), pigweed (redroot pigweed, Amaranthus retroflexus), ragweed (common ragweed, Ambrosia elation), soybean (Glycine max), barnyardgrass (Echinochloa crus-galli), oilseed rape (Brassica napus), waterhemp (common waterhemp, Amaranthus rudis), oat, wild (wild oat, Avena fatua), kochia (Kochia scoparia), Surinam grass (Brachiaria decumbens), foxtail, green (green foxtail, Setaria viridis), goosegrass (Eleusine indica), bromegrass, downy (downy bromegrass, Bromus tectorum), nightshade (eastern black nightshade, Solanum ptycanthum), cocklebur (common cocklebur, Xanthium strumarium), cupgrass, woolly (woolly cupgrass, Eriochloa villosa), bermudagrass (Cynodon dactylon), sunflower, (common oilseed sunflower, Helianthus annuus), Russian thistle (Salsola kali), and velvetleaf (Abutilon theophrasti) were planted into a blend of loam soil and sand and treated preemergence with test chemicals formulated in a non-phytotoxic solvent mixture which included a surfactant.
(§4) At the same time, plants selected from these crop and weed species and also chickweed (common chickweed, Stellaria media), canarygrass (littleseed canarygrass, Phalaris minor), and deadnettle (henbit deadnettle, Lamium amplexicaule), were planted in pots containing Redi-Earth® planting medium (Scotts Company, 14111 Scottslawn Road, Marysville, Ohio 43041) comprising spaghnum peat moss, vermiculite, wetting agent and starter nutrients and treated with postemergence applications of test chemicals formulated in the same manner. Plants ranged in height from 2 to 18 cm (1- to 4-leaf stage) for postemergence treatments. Treated plants and controls were maintained in a greenhouse for 13 to 15 days, after which time all species were compared to controls and visually evaluated. Plant response ratings, summarized in Table C, are based on a scale of 0 to 100 where 0 is no effect and 100 is complete control. A dash (-) response means no test result.

[11] = tested on: corn; experiment: Test C postemergence; assay type: in vivo, Zea mays; details: for Corn plant response rating: scale 0 to 100
Excerpt: as §3, §4

[12] = tested on: barnyardgrass; experiment: Test A preemergence; assay type: in vivo, Echinochloa crus-galli; details: 0 to 100 scale
Method in brief: as §1

[13] = tested on: crabgrass, large; experiment: Test A postemergence; assay type: in vivo, Digitaria sanguinalis
Method in brief: as §1

[14] = 31 g ai/ha, scale 0 to 100 (0 no effect, 100 complete control), 13 to 15 days
[15] = 125 g ai/ha, scale 0 to 100, 0 is no effect, 100 is complete control
[16] = 250 g ai/ha, scale 0 to 100 (0 no effect, 100 complete control)
[17] = 125 g ai/ha, scale 0 to 100, 0 no effect, 100 complete control
[18] = Postemergence, 500 g ai/ha, visual rating after approx. 10 days, 0 to 100 scale (0 no effect, 100 complete control)
[19] = postemergence, 125 g ai/ha, about 10 days, visual rating on 0 to 100 scale (0 no effect, 100 complete control)
[20] = Preemergence, 500 g ai/ha, 0 no effect, 100 complete control
[21] = preemergence, 125 g ai/ha, visual injury, approx. 10 days
[22] = postemergence, 250 g ai/ha, scale 0 to 100 (0 no effect, 100 complete control)
[23] = postemergence, 125 g ai/ha, scale 0 to 100, 0 no effect, 100 complete control
[24] = Postemergence, 1000 g ai/ha, visual rating after approx. 10 days, 0 to 100 scale (0 no effect, 100 complete control)
[25] = Preemergence, 1000 g ai/ha, 0 no effect, 100 complete control

Compound | Plant response rating (scale of 0 to 100), Velvetleaf [2] | Velvetleaf plant response rating [2, 14] | Plant response rating, Velvetleaf ([2]; 13 to 15 days) | Velvetleaf plant response rating [2, 15] | Velvetleaf plant response rating [3] | Plant response rating, Velvetleaf [3, 16] | Plant response rating, Velvetleaf [3, 17] | Plant response rating (scale of 0 to 100), Soybean [4] | Soybean plant response rating [4, 14] | Plant response rating, Soybean ([4]; 13 to 15 days) | Soybean plant response rating [4, 15] | Plant response rating (scale of 0 to 100), Nutsedge, Yellow [5] | Nutsedge, Yellow plant response rating [5, 14] | Plant response rating, Nutsedge, Yellow ([5]; 13 to 15 days) | Nutsedge, Yellow plant response rating [5, 15] | Wheat plant response rating [8] | Plant response rating, Wheat [8, 16] | Plant response rating, Wheat [8, 17] | Soybean plant response rating [10] | Plant response rating, Soybean [10, 16] | other results
CCONC(=O)c1cc(CC)n(Cc2cccc(OC(F)(F)F)c2)n1 [Compound 72] | 100 | 20 | 100 | 100 | 5 | 55 | 35 | 75 | 20 | 60 | 75 | 85 | 0 | 40 | 60 | 5 | 10 | 10 | 20 | 40 | Barnyardgrass plant response rating ([1]; 125 g ai/ha, 0 to 100 scale, 0 no effect, 100 complete control): 90; Barnyardgrass plant response rating ([1]; 500 g ai/ha, visual rating after approx. 10 days, 0 to 100 scale (0 no effect, 100 complete control)): 90; Pigweed plant response rating [6, 18]: 100; Pigweed plant response rating [6, 19]: 90; Crabgrass, Large plant response rating [7, 20]: 100; Crabgrass, Large plant response rating [7, 21]: 90; Velvetleaf plant response rating [9, 20]: 100; Velvetleaf plant response rating [9, 21]: 70; Plant response rating, Soybean [10, 17]: 35; Corn plant response rating ([11]; Postemergence, 31 g ai/ha): 10; Corn plant response rating ([11]; postemergence, 62 g ai/ha): 10; Plant response rating, Corn [11, 22]: 60; Plant response rating, Corn [11, 23]: 10; Barnyardgrass plant response rating [12, 20]: 100; Barnyardgrass plant response rating [12, 21]: 90; Crabgrass, Large plant response rating [13, 18]: 90; Crabgrass, Large plant response rating [13, 19]: 80
Cc1cc(C(=O)NCC(F)(F)F)nn1Cc1ccnc(C(F)(F)F)c1 [Compound 74] | 100 | 45 | 65 | 100 | 30 | 40 | 30 | 98 | 25 | 55 | 85 | 98 | 15 | 60 | 80 | 0 | 5 | 0 | 80 | 85 | Barnyardgrass plant response rating ([1]; 1000 g ai/ha, visual rating after approx. 10 days, 0 to 100 scale (0 no effect, 100 complete control)): 90; Pigweed plant response rating [6, 24]: 100; Crabgrass, Large plant response rating [7, 25]: 100; Velvetleaf plant response rating [9, 25]: 100; Plant response rating, Soybean [10, 17]: 85; Corn plant response rating ([11]; Postemergence, 31 g ai/ha): 10; Corn plant response rating ([11]; postemergence, 62 g ai/ha): 10; Plant response rating, Corn [11, 22]: 55; Plant response rating, Corn [11, 23]: 20; Barnyardgrass plant response rating [12, 25]: 100; Crabgrass, Large plant response rating [13, 24]: 100
